Assay [1] concerns MCF-7 cells. Briefly: Cell migration (scratch) assay. It counts as cell-based. To be noted: 24 hours, compared to untreated cells. Here is the method:
MCF-7 cells were grown to confluence in six-well tissue culture plastic dishes to a density of ∼0.2 million cells/well. After 24 hrs of seeding, cells were treated with chemical compounds. The medium was removed and the cells were scratched by 200 μL pipette micro tip through the center of the plate. The cultures were washed to remove debris and re-cultured with DMEM containing 10% FBS for cell migration. The cells were imaged at 24 hrs and the migrated distance was measured. Migration rate was calculated by counting five to seven fields per image and the results presented as the average of three independent experiments performed over multiple days.

The subject of assay [2] is MCF-7 cells. Briefly: Annexin V/propidium iodide FACS assay. Type of assay: cell-based. As for the experimental part: The assay is based on the ability of the protein annexin V to bind to phosphatidylserine (PS) exposed on the outer membrane leaflet in apoptotic cells (PS also appears on the necrotic cell surface). The annexin V assay was performed following the manufacturer’s instructions (Annexin V-FITC kit,Alexa Fluor). Briefly, the cells were washed with PBS and suspended in pre-diluted binding buffer. The cell density was adjusted to 2 million and 195 μl of cell suspension were mixed with 5 μl Annexin V-FITC and incubated for 10 min in the dark at room temperature. The cells were washed with binding buffer, re-suspended in 195 μl binding buffer, counterstained with 10 μl of the 20 μg/ml propidium iodide stock (final concentration 1 μg/ml) and the data were acquired by BD FACS diva 7.0 at 6 h, 12 h and 24 h.

Another assay concerns MCF-7 cell lysate. Briefly: Chemical proteomics target deconvolution with polymer-immobilized 5l. To be noted: differential proteins common to three experiments, MS. Type of assay: binding, Human. Here is the method:
5l was provided as a lyophilized powder. A 100 mM stock of 5l was made in DMSO. The stock solution was diluted to 215 μM in 1 mM of phosphate buffer in pH 6.0 and incubated with the matrix for 16 hrs at room temperature. After incubation, the matrix was washed five times with Phosphate buffer. The amount of molecule in the phosphate buffer wash was quantified by HPLC-UV based method and amount of molecule retained on the matrix was calculated.
Cell lysates were prepared in RIPA buffer and protein concentration was determined by Bradford method. Cell lysate was diluted with 1X TBS to a concentration of 1 mg/ml. The 5l immobilized matrix was incubated with 2 ml of cell lysate for 2 min with mild shaking. The matrix was washed with 1X TBS to remove unbound proteins and to reduce non-specific interactions. The molecule bound proteins were then recovered by acetone precipitation and was dissolved in 1X sample buffer. Proteins were separated on a 4–12% gradient gel and bands were digested by standard “in-gel” trypsin digestion methods. […]
Agilent Mass Hunter software was used for data acquisition and analysis of Total ion chromatograms. […] The peptide sequence was also analysed for variable modifications such as methionine oxidation, acetylation, cysteine sulfoxide, deamidation and pyro glutamic acid modification.

As for `O=C1Nc2ccccc2C12CCNC2c1ccccc1` (stereo not drawn) [Compound 5l], the “Inhibition of cell migration of MCF-7 cells” value with MCF-7 cells [1] is listed as “inhibit cell migration”. The “Mode of cell death by Annexin-PI FACS” value in the assay with MCF-7 cells [2] is listed as “necrosis was also confirmed”. Besides, in the assay with MCF-7 cell lysate, the “Putative cellular binding targets” value was “HDAC2 and Prohibitin 2 are considered top priority targets”.

(Values after PMC5004205, “Spiro[pyrrolidine-3, 3´-oxindole] as potent anti-breast cancer compounds: Their design, synthesis, biological evaluation and cellular target identification” (Scientific Reports, 2016).)
